US20230111310A1, “CARBOXYLIC ACID DERIVATIVE-SUBSTITUTED IMINO ARYL COMPOUND, PREPARATION METHOD THEREFOR, HERBICIDAL COMPOSITION AND USE THEREOF” (Qingdao Kingagroot Chemical Compound Co., Ltd., priority 2020, published 2023)

Assays:
Test in all cases: Weeding effect in post-emergence stage
Format in all cases: in vivo
Settings in all cases: level of fresh weight growth control rate
Echinochloa crusgalli = system: Echinochloa crusgalli
Summary of the method: (§1)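 Seeds are sown in soil-filled pots under 0.5-2 cm soil and grown 2 weeks in greenhouse. Plants at 2-3 leaves are sprayed with compound (acetone, Tween 80, 1.5 liter/ha methyl oleate EC, water) at 7.5 to 500 g/ha. Damage is rated 3 weeks later, averaging three repeats.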

Eleusine indica = system: Eleusine indica
Summary of the method: as §1

Setaria viridis = system: Setaria viridis
Summary of the method: as §1

Abutilon theophrasti = system: Abutilon theophrasti
Summary of the method: as §1

Alopecurus japonicus = system: Alopecurus japonicus
Summary of the method: as §1

Digitaria sanguinalis = system: Digitaria sanguinalis
Summary of the method: as §1

Structure (SMILES) | Weeding effect in post-emergence stage, Echinochloa crusgalli (Echinochloa crusgalli; Dose 15 g/ha) | Weeding effect in post-emergence stage, Eleusine indica (Eleusine indica; Dose 15 g/ha) | Weeding effect in post-emergence stage, Setaria viridis (Setaria viridis; Dose 15 g/ha) | Weeding effect in post-emergence stage, Abutilon theophrasti (Abutilon theophrasti; Dose 15 g/ha) | Weeding effect in post-emergence stage, Alopecurus japonicus (Alopecurus japonicus; Dose 15 g/ha) | Weeding effect in post-emergence stage, Digitaria sanguinalis (Digitaria sanguinalis; Dose 15 g/ha) | Weeding effect in post-emergence stage, Echinochloa crusgalli (Echinochloa crusgalli; Dose 30 g/ha) | Weeding effect in post-emergence stage, Eleusine indica (Eleusine indica; Dose 30 g/ha) | Weeding effect in post-emergence stage, Setaria viridis (Setaria viridis; Dose 30 g/ha) | Weeding effect in post-emergence stage, Abutilon theophrasti (Abutilon theophrasti; Dose 30 g/ha) | Weeding effect in post-emergence stage, Alopecurus japonicus (Alopecurus japonicus; Dose 30 g/ha) | Weeding effect in post-emergence stage, Digitaria sanguinalis (Digitaria sanguinalis; Dose 30 g/ha)
CC(O/N=C/c1cc(-n2c(=O)cc(C(F)(F)F)n(C)c2=O)c(F)cc1Cl)C(=O)OCc1ccncc1 (stereo not drawn) [Compound 303] | 5 (Level 5: growth control rate is above 85%) | 5 (Level 5: growth control rate is above 85%) | 5 (Level 5: growth control rate is above 85%) | 5 (Level 5: growth control rate is above 85%) | 5 (Level 5: growth control rate is above 85%) | 5 (Level 5: growth control rate is above 85%) |  |  |  |  |  | 
CCOC(=O)C(F)O/N=C/c1cc(-n2c(=O)cc(C(F)(F)F)n(C)c2=O)c(F)cc1Cl (stereo not drawn) [Compound 313] | 5 (Level 5: growth control rate is above 85%) | 5 (Level 5: growth control rate is above 85%) | 5 (Level 5: growth control rate is above 85%) | 5 (Level 5: growth control rate is above 85%) | 5 (Level 5: growth control rate is above 85%) | 5 (Level 5: growth control rate is above 85%) |  |  |  |  |  | 
CCC(O/N=C/c1cc(-n2c(=O)cc(C(F)(F)F)n(C)c2=O)c(F)cc1Cl)C(=O)OC (stereo not drawn) [Compound 315] | 5 (Level 5: growth control rate is above 85%) | 5 (Level 5: growth control rate is above 85%) | 5 (Level 5: growth control rate is above 85%) | 5 (Level 5: growth control rate is above 85%) | 5 (Level 5: growth control rate is above 85%) | 5 (Level 5: growth control rate is above 85%) |  |  |  |  |  | 
CCCC(O/N=C/c1cc(-n2c(=O)cc(C(F)(F)F)n(C)c2=O)c(F)cc1Cl)C(=O)OC (stereo not drawn) [Compound 316] | 5 (Level 5: growth control rate is above 85%) | 5 (Level 5: growth control rate is above 85%) | 5 (Level 5: growth control rate is above 85%) | 5 (Level 5: growth control rate is above 85%) | 5 (Level 5: growth control rate is above 85%) | 5 (Level 5: growth control rate is above 85%) |  |  |  |  |  | 
COC(=O)C(O/N=C/c1cc(-n2c(=O)cc(C(F)(F)F)n(C)c2=O)c(F)cc1Cl)C(C)C (stereo not drawn) [Compound 318] | 5 (Level 5: growth control rate is above 85%) | 5 (Level 5: growth control rate is above 85%) | 5 (Level 5: growth control rate is above 85%) | 5 (Level 5: growth control rate is above 85%) | 5 (Level 5: growth control rate is above 85%) | 5 (Level 5: growth control rate is above 85%) |  |  |  |  |  | 
CCOC(=O)C(O/N=C/c1cc(-n2c(=O)cc(C(F)(F)F)n(C)c2=O)c(F)cc1Cl)C1CC1 (stereo not drawn) [Compound 319] |  |  |  |  |  |  | 5 (Level 5: growth control rate is above 85%) | 5 (Level 5: growth control rate is above 85%) | 5 (Level 5: growth control rate is above 85%) | 5 (Level 5: growth control rate is above 85%) | 5 (Level 5: growth control rate is above 85%) | 5 (Level 5: growth control rate is above 85%)
